Reference: PubChem BioAssay AID1963978 (Molecular Pharmacology Branch, DTP, NCI, 2024)

Tested on: 616215-338-R-J1-PDC spheroids with HUVEC/MSC, viability
Assay: Anticancer human tumor 616215-338-R-J1-PDC patient-derived colon adenocarcinoma cell line growth inhibition [PI3K]
Conditions: for viability, T/C: stronger effect = lower value
Procedure, shortened: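 Stroma-containing spheroids: tumor line, pooled-donor HUVEC, hMSC. Treatments: targeted agents with PI3K inhibitors. Dosing: clinically relevant, half-log spacing, 10 microM ceiling without known Cmax. Read-out: cell viability.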

[1] = curve of first compound, second compound 0.00316 µM
[2] = curve of first compound, second compound 0.01 µM
[3] = curve of first compound, second compound 0.0316 µM
[4] = curve of first compound, second compound 0.1 µM
[5] = curve of first compound, second compound 0.316 µM
[6] = curve of first compound, second compound 1 µM
[7] = second compound 0.00316 µM, first compound 0.0316 µM
[8] = second compound 0.00316 µM, first compound 0.1 µM
[9] = second compound 0.00316 µM, first compound 0.316 µM
[10] = second compound 0.00316 µM, first compound 1 µM
[11] = second compound 0.00316 µM, first compound 3.16 µM
[12] = second compound 0.00316 µM, first compound 10 µM
[13] = second compound 0.01 µM, first compound 0.0316 µM
[14] = second compound 0.01 µM, first compound 0.1 µM
[15] = second compound 0.01 µM, first compound 0.316 µM
[16] = second compound 0.01 µM, first compound 1 µM
[17] = second compound 0.01 µM, first compound 3.16 µM
[18] = second compound 0.01 µM, first compound 10 µM
[19] = second compound 0.0316 µM, first compound 0.0316 µM
[20] = second compound 0.0316 µM, first compound 0.1 µM
[21] = second compound 0.0316 µM, first compound 0.316 µM
[22] = second compound 0.0316 µM, first compound 1 µM
[23] = second compound 0.0316 µM, first compound 3.16 µM
[24] = second compound 0.0316 µM, first compound 10 µM
[25] = second compound 0.1 µM, first compound 0.0316 µM
[26] = second compound 0.1 µM, first compound 0.1 µM
[27] = second compound 0.1 µM, first compound 0.316 µM
[28] = second compound 0.1 µM, first compound 1 µM
[29] = second compound 0.1 µM, first compound 3.16 µM
[30] = second compound 0.1 µM, first compound 10 µM
[31] = second compound 0.316 µM, first compound 0.0316 µM
[32] = second compound 0.316 µM, first compound 0.1 µM
[33] = second compound 0.316 µM, first compound 0.316 µM
[34] = second compound 0.316 µM, first compound 1 µM
[35] = second compound 0.316 µM, first compound 3.16 µM
[36] = second compound 0.316 µM, first compound 10 µM
[37] = second compound 1 µM, first compound 0.0316 µM
[38] = second compound 1 µM, first compound 0.1 µM
[39] = second compound 1 µM, first compound 0.316 µM
[40] = second compound 1 µM, first compound 1 µM
[41] = second compound 1 µM, first compound 3.16 µM
[42] = second compound 1 µM, first compound 10 µM
[43] = curve of first compound, second compound 3.16 µM
[44] = curve of first compound, second compound 10 µM
[45] = second compound 3.16 µM, first compound 0.0316 µM
[46] = second compound 3.16 µM, first compound 0.1 µM
[47] = second compound 3.16 µM, first compound 0.316 µM
[48] = second compound 3.16 µM, first compound 1 µM
[49] = second compound 3.16 µM, first compound 3.16 µM
[50] = second compound 3.16 µM, first compound 10 µM
[51] = second compound 10 µM, first compound 0.0316 µM
[52] = second compound 10 µM, first compound 0.1 µM
[53] = second compound 10 µM, first compound 0.316 µM
[54] = second compound 10 µM, first compound 1 µM
[55] = second compound 10 µM, first compound 3.16 µM
[56] = second compound 10 µM, first compound 10 µM
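Also: spheroids exposed to agents for seven days before the viability read.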

SMILES: CC(=O)c1c(C)c2cnc(Nc3ccc(N4CCNCC4)cn3)nc2n(C2CCCC2)c1=O
- viability, T/C (compound 0.000316 µM): 96.5% [middle of 4 runs]
- viability, T/C (compound 0.001 µM): 98.8% [middle of 4 runs]
- viability, T/C (compound 0.00316 µM): 98.5% [middle of 4 runs]
- viability, T/C (compound 0.01 µM): 112% [middle of 4 runs]
- viability, T/C (compound 0.0316 µM): 97.5% [middle of 4 runs]
- viability, T/C (compound 0.1 µM): 115% [middle of 4 runs]
- IC50 (curve of compound): > 0.1 µM

SMILES: Cn1nccc1Nc1nccc(-c2ccn(C(CO)c3ccc(Cl)c(F)c3)c(=O)c2)n1 (centres undefined) + COc1c(OCCCN2CCOCC2)ccc2c3n(c(=NC(=O)c4cnc(N)nc4)nc12)CCN3
- IC50 [1]: 3.28 µM
- IC50 [2]: 1.11 µM
- IC50 [3]: 0.659 µM
- IC50 [4]: 0.412 µM
- IC50 [5]: < 0.0316 µM
- IC50 [6]: < 0.0316 µM
- viability, T/C [7]: 99.7%
- viability, T/C [8]: 94.4%
- viability, T/C [9]: 76.8%
- viability, T/C [10]: 67.7%
- viability, T/C [11]: 48.5%
- viability, T/C [12]: 40.7%
- viability, T/C [13]: 96.7%
- viability, T/C [14]: 102%
- viability, T/C [15]: 81.2%
- viability, T/C [16]: 49.8%
- viability, T/C [17]: 42.4%
- viability, T/C [18]: 28.8%
- viability, T/C [19]: 94.1%
- viability, T/C [20]: 92.8%
- viability, T/C [21]: 59.6%
- viability, T/C [22]: 42.2%
- viability, T/C [23]: 25.6%
- viability, T/C [24]: 10.7%
- viability, T/C [25]: 92.4%
- viability, T/C [26]: 83.8%
- viability, T/C [27]: 46.6%
- viability, T/C [28]: 37.5%
- viability, T/C [29]: 13.9%
- viability, T/C [30]: 0.2%
- viability, T/C [31]: 38%
- viability, T/C [32]: 38.6%
- viability, T/C [33]: 22.6%
- viability, T/C [34]: 13.2%
- viability, T/C [35]: 1.77%
- viability, T/C [36]: 0.14%
- viability, T/C [37]: 19.6%
- viability, T/C [38]: 11.4%
- viability, T/C [39]: 4.09%
- viability, T/C [40]: 0.93%
- viability, T/C [41]: 0.9%
- viability, T/C [42]: 0.16%

SMILES: Cn1ncnc1[C@H]1c2n[nH]c(=O)c3cc(F)cc(c23)N[C@@H]1c1ccc(F)cc1
- viability, T/C (compound 0.000316 µM): 95% [middle of 4 runs]
- viability, T/C (compound 0.001 µM): 97.2% [middle of 4 runs]
- viability, T/C (compound 0.00316 µM): 100% [middle of 4 runs]
- viability, T/C (compound 0.01 µM): 102% [middle of 4 runs]
- viability, T/C (compound 0.0316 µM): 102% [middle of 4 runs]
- viability, T/C (compound 0.1 µM): 94.5% [middle of 4 runs]
- IC50 (curve of compound): > 0.1 µM

SMILES: C#Cc1c(F)ccc2cc(O)cc(-c3ncc4c(N5CC6CCC(C5)N6)nc(OCC56CCCN5CC(F)C6)nc4c3F)c12 (centres undefined) + CC(Nc1ccc2c(c1)OCCn1cc(N3C(=O)OCC3C(F)F)nc1-2)C(N)=O
- IC50 [1]: > 10 µM
- IC50 [2]: > 10 µM
- IC50 [3]: > 10 µM
- IC50 [4]: > 10 µM
- IC50 [5]: 6.86 µM
- IC50 [6]: 7.1 µM
- viability, T/C [7]: 102%
- viability, T/C [8]: 79.6%
- viability, T/C [9]: 111%
- viability, T/C [10]: 100%
- viability, T/C [11]: 90.5%
- viability, T/C [12]: 74.6%
- viability, T/C [13]: 90%
- viability, T/C [14]: 94%
- viability, T/C [15]: 102%
- viability, T/C [16]: 95.7%
- viability, T/C [17]: 98.2%
- viability, T/C [18]: 62.2%
- viability, T/C [19]: 96%
- viability, T/C [20]: 95.4%
- viability, T/C [21]: 106%
- viability, T/C [22]: 99.7%
- viability, T/C [23]: 81.8%
- viability, T/C [24]: 62.6%
- viability, T/C [25]: 101%
- viability, T/C [26]: 100%
- viability, T/C [27]: 101%
- viability, T/C [28]: 83.1%
- viability, T/C [29]: 79.7%
- viability, T/C [30]: 52.8%
- viability, T/C [31]: 100%
- viability, T/C [32]: 96.5%
- viability, T/C [33]: 95.9%
- viability, T/C [34]: 87.2%
- viability, T/C [35]: 71.4%
- viability, T/C [36]: 39.5%
- viability, T/C [37]: 95.3%
- viability, T/C [38]: 84.2%
- viability, T/C [39]: 90.1%
- viability, T/C [40]: 86.9%
- viability, T/C [41]: 67.5%
- viability, T/C [42]: 42.6%

SMILES: CC1(C)CCC(CN2CCN(c3ccc(C(=O)NS(=O)(=O)c4ccc(NCC5CCOCC5)c([N+](=O)[O-])c4)c(Oc4cnc5[nH]ccc5c4)c3)CC2)=C(c2ccc(Cl)cc2)C1 + Cc1nc(NC(=O)N2CCCC2C(N)=O)sc1-c1ccnc(C(C)(C)C(F)(F)F)c1
- IC50 [3]: 5.22 µM
- IC50 [4]: 5 µM
- IC50 [5]: 4.98 µM
- IC50 [6]: 5.11 µM
- IC50 [43]: 5.37 µM
- IC50 [44]: 4.47 µM
- viability, T/C [19]: 95.6%
- viability, T/C [20]: 98.9%
- viability, T/C [21]: 108%
- viability, T/C [22]: 102%
- viability, T/C [23]: 86.4%
- viability, T/C [24]: 2.58%
- viability, T/C [25]: 97.4%
- viability, T/C [26]: 92.3%
- viability, T/C [27]: 95.8%
- viability, T/C [28]: 104%
- viability, T/C [29]: 81.5%
- viability, T/C [30]: 1.97%
- viability, T/C [31]: 98.5%
- viability, T/C [32]: 97.1%
- viability, T/C [33]: 90.5%
- viability, T/C [34]: 97.7%
- viability, T/C [35]: 81%
- viability, T/C [36]: 2.29%
- viability, T/C [37]: 103%
- viability, T/C [38]: 92.3%
- viability, T/C [39]: 102%
- viability, T/C [40]: 93%
- viability, T/C [41]: 85.3%
- viability, T/C [42]: 0.61%
- viability, T/C [45]: 95.6%
- viability, T/C [46]: 99.4%
- viability, T/C [47]: 101%
- viability, T/C [48]: 97.9%
- viability, T/C [49]: 91.9%
- viability, T/C [50]: 0.6%
- viability, T/C [51]: 92.8%
- viability, T/C [52]: 99.9%
- viability, T/C [53]: 94.8%
- viability, T/C [54]: 87.1%
- viability, T/C [55]: 72.4%
- viability, T/C [56]: 0.39%

SMILES: CC1(C)CCC(Nc2ncc(C(F)(F)F)c(-c3c[nH]c4c(P(C)(C)=O)c(C#N)ccc34)n2)CN1 (centres undefined) + Cc1nc(NC(=O)N2CCCC2C(N)=O)sc1-c1ccnc(C(C)(C)C(F)(F)F)c1
- IC50 [3]: 3.65 µM
- IC50 [4]: 3.77 µM
- IC50 [5]: 3.66 µM
- IC50 [6]: 3.35 µM
- IC50 [43]: 1.1 µM
- IC50 [44]: 0.185 µM
- viability, T/C [19]: 50.7%
- viability, T/C [20]: 54.1%
- viability, T/C [21]: 54.7%
- viability, T/C [22]: 56.1%
- viability, T/C [23]: 69.7%
- viability, T/C [24]: 0.38%
- viability, T/C [25]: 64.5%
- viability, T/C [26]: 52%
- viability, T/C [27]: 59.5%
- viability, T/C [28]: 60%
- viability, T/C [29]: 59.7%
- viability, T/C [30]: 0.38%
- viability, T/C [31]: 51.8%
- viability, T/C [32]: 57.8%
- viability, T/C [33]: 59.7%
- viability, T/C [34]: 52.8%
- viability, T/C [35]: 63.6%
- viability, T/C [36]: 0.32%
- viability, T/C [37]: 61.9%
- viability, T/C [38]: 45.8%
- viability, T/C [39]: 53.7%
- viability, T/C [40]: 55.8%
- viability, T/C [41]: 52.5%
- viability, T/C [42]: 0.18%
- viability, T/C [45]: 53.5%
- viability, T/C [46]: 47.5%
- viability, T/C [47]: 48.3%
- viability, T/C [48]: 57.6%
- viability, T/C [49]: 31.2%
- viability, T/C [50]: 0.39%
- viability, T/C [51]: 61.6%
- viability, T/C [52]: 51.4%
- viability, T/C [53]: 46.2%
- viability, T/C [54]: 37.1%
- viability, T/C [55]: 20.2%
- viability, T/C [56]: 0.89%

SMILES: CC(Nc1ncnc2nc[nH]c12)c1cc2cccc(Cl)c2c(=O)n1-c1ccccc1 (centres undefined)
- viability, T/C (compound 0.0316 µM): 103% [middle of 8 runs]
- viability, T/C (compound 0.1 µM): 96.5% [middle of 8 runs]
- viability, T/C (compound 0.316 µM): 99.3% [middle of 8 runs]
- viability, T/C (compound 1 µM): 105% [middle of 8 runs]
- viability, T/C (compound 3.16 µM): 102% [middle of 8 runs]
- viability, T/C (compound 10 µM): 105% [middle of 8 runs]
- IC50 (compound alone, run of 05/09/2023): > 10 µM
